The target of the test is T1, PLCγ2 (Homo sapiens, UniProt P16885).
T1 sequence (P16885 1-1195): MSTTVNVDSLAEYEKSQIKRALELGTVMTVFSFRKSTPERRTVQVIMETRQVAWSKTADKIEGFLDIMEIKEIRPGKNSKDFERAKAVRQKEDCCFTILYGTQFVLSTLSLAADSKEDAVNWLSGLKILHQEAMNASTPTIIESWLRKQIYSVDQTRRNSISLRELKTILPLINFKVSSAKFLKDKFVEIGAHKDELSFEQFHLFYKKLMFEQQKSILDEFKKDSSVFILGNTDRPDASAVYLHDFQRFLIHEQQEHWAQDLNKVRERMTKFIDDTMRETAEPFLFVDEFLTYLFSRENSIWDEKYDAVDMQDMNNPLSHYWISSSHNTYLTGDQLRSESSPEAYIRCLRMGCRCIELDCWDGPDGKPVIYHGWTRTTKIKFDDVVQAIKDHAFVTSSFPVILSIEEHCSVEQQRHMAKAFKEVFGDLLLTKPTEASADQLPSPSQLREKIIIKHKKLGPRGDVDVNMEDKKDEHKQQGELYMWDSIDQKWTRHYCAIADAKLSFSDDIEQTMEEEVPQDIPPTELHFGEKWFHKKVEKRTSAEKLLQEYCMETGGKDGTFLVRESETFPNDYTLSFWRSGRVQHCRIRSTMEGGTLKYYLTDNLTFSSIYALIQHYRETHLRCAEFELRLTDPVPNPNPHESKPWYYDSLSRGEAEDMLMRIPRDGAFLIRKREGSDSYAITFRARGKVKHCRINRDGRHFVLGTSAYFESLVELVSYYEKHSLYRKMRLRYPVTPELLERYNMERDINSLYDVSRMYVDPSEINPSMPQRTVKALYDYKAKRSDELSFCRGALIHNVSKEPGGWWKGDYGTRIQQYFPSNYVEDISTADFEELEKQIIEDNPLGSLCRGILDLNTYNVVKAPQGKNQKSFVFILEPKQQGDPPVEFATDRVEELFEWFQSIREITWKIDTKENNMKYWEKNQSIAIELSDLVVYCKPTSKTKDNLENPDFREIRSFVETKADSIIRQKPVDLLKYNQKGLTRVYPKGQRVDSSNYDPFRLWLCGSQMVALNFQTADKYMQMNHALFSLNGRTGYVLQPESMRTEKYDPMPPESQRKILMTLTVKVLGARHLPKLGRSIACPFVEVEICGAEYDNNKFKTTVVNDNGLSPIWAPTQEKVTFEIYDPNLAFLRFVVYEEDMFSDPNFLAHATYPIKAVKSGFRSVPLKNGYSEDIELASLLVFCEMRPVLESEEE
Kind of test: inhibition of C8CF3-coumarin processing by purified enzyme. The class given is biochemical.

SMILES strings stand for the structures.

For the molecule `Nc1ncnc2c1ncn2[C@@H]1O[C@H](COP(=O)(O)OP(=O)(O)OP(=O)(O)O)[C@@H](O)[C@H]1O` [adenosine triphosphate], the IC50 came to 27.2 µM. In other words, the double-digit micromolar range.

Broadly, the IC50 is the concentration needed to halve the response being measured. Low values mean greater potency, high ones weaker potency.

Values taken from PMC10251139 (SLAS discovery : advancing life sciences R & D, 2023).
